Test system: human mixed lymphocyte reaction (MLR)
Assay: human mixed lymphocyte reaction (MLR), serum free variation
Format: cell-based
Conditions: serum-free medium AIM V, Table 3
Experimental: In vitro Assay of Biological Activity (Serum Free MLR)
The in viitro immunosuppressant activity of the compounds of the present invention can also be determined using a variation of the human mixed lymphocyte reaction (MLR) assay described by Kino, T. et al. in Transplantation Proceedings, XIX(5):36-39, Suppl. 6 (1987). In this assay, the cell culture was performed in a serum-free medium, AIM V (GibcoBRL Life Technologies, Grand Island, N.Y.), instead of the usual RPMI 1640 plus 10% heat-inactivated fetal bovine serum medium. The final cell concentrations of the responder and stimulator peripheral blood mononuclear cells were, respectively, 5×10^5/mL and 2×10^6/mL of cells pooled from four donors.

Row | SMILES | IC50 (Homo sapiens, Lymphocyte) [nM] | other results
1 | CCOC(=O)CS(=O)(=O)[C@H]1CC[C@@H](/C=C(\C)[C@H]2OC(=O)[C@@H]3CCCCN3C(=O)C(=O)[C@]3(O)O[C@H]([C@@H](OC)C[C@@H](C)C/C(C)=C/[C@@H](CC)C(=O)C[C@H](O)[C@H]2C)[C@@H](OC)C[C@H]3C)C[C@H]1OC [Example 59] | 7.5 | –
2 | CCOC(=O)CC[S+]([O-])[C@H]1CC[C@@H](/C=C(\C)[C@H]2OC(=O)[C@@H]3CCCCN3C(=O)C(=O)[C@]3(O)O[C@H]([C@@H](OC)C[C@@H](C)C/C(C)=C/[C@@H](CC)C(=O)C[C@H](O)[C@H]2C)[C@@H](OC)C[C@H]3C)C[C@H]1OC (stereo partly shown) [Example 60] | 6.1 | –
3 | CCOC(=O)CCS(=O)(=O)[C@H]1CC[C@@H](/C=C(\C)[C@H]2OC(=O)[C@@H]3CCCCN3C(=O)C(=O)[C@]3(O)O[C@H]([C@@H](OC)C[C@@H](C)C/C(C)=C/[C@@H](CC)C(=O)C[C@H](O)[C@H]2C)[C@@H](OC)C[C@H]3C)C[C@H]1OC [Example 61] | 2.5 | –
4 | CC[C@@H]1/C=C(\C)C[C@H](C)C[C@H](OC)[C@H]2O[C@@](O)(C(=O)C(=O)N3CCCC[C@H]3C(=O)O[C@H](/C(C)=C/[C@@H]3CC[C@H]([S+]([O-])CCC(=O)OCc4ccccc4)[C@H](OC)C3)[C@H](C)[C@@H](O)CC1=O)[C@H](C)C[C@@H]2OC (stereo partly shown) [Example 63] | 15 | –
5 | CC[C@@H]1/C=C(\C)C[C@H](C)C[C@H](OC)[C@H]2O[C@@](O)(C(=O)C(=O)N3CCCC[C@H]3C(=O)O[C@H](/C(C)=C/[C@@H]3CC[C@H](S(=O)(=O)CCC(=O)OCc4ccccc4)[C@H](OC)C3)[C@H](C)[C@@H](O)CC1=O)[C@H](C)C[C@@H]2OC [Example 64] | 9.2 | –
6 | CC[C@@H]1/C=C(\C)C[C@H](C)C[C@H](OC)[C@H]2O[C@@](O)(C(=O)C(=O)N3CCCC[C@H]3C(=O)O[C@H](/C(C)=C/[C@@H]3CC[C@H]([S+]([O-])CCC(=O)N(O)C(C)C)[C@H](OC)C3)[C@H](C)[C@@H](O)CC1=O)[C@H](C)C[C@@H]2OC (stereo partly shown) [Example 72] | 32.2 | –
7 | CC[C@@H]1/C=C(\C)C[C@H](C)C[C@H](OC)[C@H]2O[C@@](O)(C(=O)C(=O)N3CCCC[C@H]3C(=O)O[C@H](/C(C)=C/[C@@H]3CC[C@H]([S+]([O-])CC(=O)O)[C@H](OC)C3)[C@H](C)[C@@H](O)CC1=O)[C@H](C)C[C@@H]2OC (stereo partly shown) [Example 74] | 57.7 | –
8 | CC[C@@H]1/C=C(\C)C[C@H](C)C[C@H](OC)[C@H]2O[C@@](O)(C(=O)C(=O)N3CCCC[C@H]3C(=O)O[C@H](/C(C)=C/[C@@H]3CC[C@H](S(=O)(=O)CCC(=O)O)[C@H](OC)C3)[C@H](C)[C@@H](O)CC1=O)[C@H](C)C[C@@H]2OC [Example 78] | 30 | –
9 | C=CCS[C@H]1CC[C@@H](/C=C(\C)[C@H]2OC(=O)[C@@H]3CCCCN3C(=O)C(=O)[C@]3(O)O[C@H]([C@@H](OC)C[C@@H](C)C/C(C)=C/[C@@H](CC)C(=O)C[C@H](O)[C@H]2C)[C@@H](OC)C[C@H]3C)C[C@H]1OC [Example 79] | 14 | –
10 | CC[C@@H]1/C=C(\C)C[C@H](C)C[C@H](OC)[C@H]2O[C@@](O)(C(=O)C(=O)N3CCCC[C@H]3C(=O)O[C@H](/C(C)=C/[C@@H]3CC[C@H](SCC(C)=O)[C@H](OC)C3)[C@H](C)[C@@H](O)CC1=O)[C@H](C)C[C@@H]2OC [Example 80] | 4.3 | –
11 | CC[C@@H]1/C=C(\C)C[C@H](C)C[C@H](OC)[C@H]2O[C@@](O)(C(=O)C(=O)N3CCCC[C@H]3C(=O)O[C@H](/C(C)=C/[C@@H]3CC[C@H](SCC(C)=NNC(N)=O)[C@H](OC)C3)[C@H](C)[C@@H](O)CC1=O)[C@H](C)C[C@@H]2OC [Example 81B] | – | IC50: 1.6 nM
12 | CC[C@@H]1/C=C(\C)C[C@H](C)C[C@H](OC)[C@H]2O[C@@](O)(C(=O)C(=O)N3CCCC[C@H]3C(=O)O[C@H](/C(C)=C/[C@@H]3CC[C@H](SCC(C)=NOC)[C@H](OC)C3)[C@H](C)[C@@H](O)CC1=O)[C@H](C)C[C@@H]2OC [Example 82] | 64 | –
13 | CC[C@@H]1/C=C(\C)C[C@H](C)C[C@H](OC)[C@H]2O[C@@](O)(C(=O)C(=O)N3CCCC[C@H]3C(=O)O[C@H](/C(C)=C/[C@@H]3CC[C@H](SCC(C)=NO)[C@H](OC)C3)[C@H](C)[C@@H](O)CC1=O)[C@H](C)C[C@@H]2OC [Example 83A] | 70 | –
14 | CC[C@@H]1/C=C(\C)C[C@H](C)C[C@H](OC)[C@H]2O[C@@](O)(C(=O)C(=O)N3CCCC[C@H]3C(=O)O[C@H](/C(C)=C/[C@@H]3CC[C@H](SCC(C)=NO)[C@H](OC)C3)[C@H](C)[C@@H](O)CC1=O)[C@H](C)C[C@@H]2OC [Example 83B] | – | IC50: 67 nM
15 | CCOC(=O)CNC(=O)S[C@H]1CC[C@@H](/C=C(\C)[C@H]2OC(=O)[C@@H]3CCCCN3C(=O)C(=O)[C@]3(O)O[C@H]([C@@H](OC)C[C@@H](C)C/C(C)=C/[C@@H](CC)C(=O)C[C@H](O)[C@H]2C)[C@@H](OC)C[C@H]3C)C[C@H]1OC [Example 95] | 10.9 | –
16 | CC[C@@H]1/C=C(\C)C[C@H](C)C[C@H](OC)[C@H]2O[C@@](O)(C(=O)C(=O)N3CCCC[C@H]3C(=O)O[C@H](/C(C)=C/[C@@H]3CC[C@H](SC(=O)NCC(=O)OCc4ccc(OC)cc4)[C@H](OC)C3)[C@H](C)[C@@H](O)CC1=O)[C@H](C)C[C@@H]2OC [Example 99] | 8.7 | –
17 | CC[C@@H]1/C=C(\C)C[C@H](C)C[C@H](OC)[C@H]2O[C@@](O)(C(=O)C(=O)N3CCCC[C@H]3C(=O)O[C@H](/C(C)=C/[C@@H]3CC[C@H](SC(=O)NCC(=O)OCC[Si](C)(C)C)[C@H](OC)C3)[C@H](C)[C@@H](O)CC1=O)[C@H](C)C[C@@H]2OC [Example 100] | – | IC50 (Lymphocyte): 5.8 nM

Now from value to compound, other results behind:

Row | IC50 (Homo sapiens, Lymphocyte) [nM] | SMILES | other results
18 | 2.1 | CC[C@@H]1/C=C(\C)C[C@H](C)C[C@H](OC)[C@H]2O[C@@](O)(C(=O)C(=O)N3CCCC[C@H]3C(=O)O[C@H](/C(C)=C/[C@@H]3CC[C@H](S(=O)(=O)CC(=O)OC(C)(C)C)[C@H](OC)C3)[C@H](C)[C@@H](O)CC1=O)[C@H](C)C[C@@H]2OC [Example 58] | –
19 | 1.3 | CC[C@@H]1/C=C(\C)C[C@H](C)C[C@H](OC)[C@H]2O[C@@](O)(C(=O)C(=O)N3CCCC[C@H]3C(=O)O[C@H](/C(C)=C/[C@@H]3CC[C@H](SCC(C)=NNC(N)=O)[C@H](OC)C3)[C@H](C)[C@@H](O)CC1=O)[C@H](C)C[C@@H]2OC [Example 81A] | –
20 | 0.48 | CC[C@@H]1/C=C(\C)C[C@H](C)C[C@H](OC)[C@H]2O[C@@](O)(C(=O)C(=O)N3CCCC[C@H]3C(=O)O[C@H](/C(C)=C/[C@@H]3CC[C@H](SC(=O)C(C)(C)C)[C@H](OC)C3)[C@H](C)[C@@H](O)CC1=O)[C@H](C)C[C@@H]2OC [Example 85] | –
21 | 1.7 | CC[C@@H]1/C=C(\C)C[C@H](C)C[C@H](OC)[C@H]2O[C@@](O)(C(=O)C(=O)N3CCCC[C@H]3C(=O)O[C@H](/C(C)=C/[C@@H]3CC[C@H](SC(=O)C(C)C)[C@H](OC)C3)[C@H](C)[C@@H](O)CC1=O)[C@H](C)C[C@@H]2OC [Example 86] | –
22 | 0.61 | CCC(=O)S[C@H]1CC[C@@H](/C=C(\C)[C@H]2OC(=O)[C@@H]3CCCCN3C(=O)C(=O)[C@]3(O)O[C@H]([C@@H](OC)C[C@@H](C)C/C(C)=C/[C@@H](CC)C(=O)C[C@H](O)[C@H]2C)[C@@H](OC)C[C@H]3C)C[C@H]1OC [Example 88] | –
23 | 0.09 | CCNC(=O)S[C@H]1CC[C@@H](/C=C(\C)[C@H]2OC(=O)[C@@H]3CCCCN3C(=O)C(=O)[C@]3(O)O[C@H]([C@@H](OC)C[C@@H](C)C/C(C)=C/[C@@H](CC)C(=O)C[C@H](O)[C@H]2C)[C@@H](OC)C[C@H]3C)C[C@H]1OC [Example 91] | –
24 | 0.26 | CCCNC(=O)S[C@H]1CC[C@@H](/C=C(\C)[C@H]2OC(=O)[C@@H]3CCCCN3C(=O)C(=O)[C@]3(O)O[C@H]([C@@H](OC)C[C@@H](C)C/C(C)=C/[C@@H](CC)C(=O)C[C@H](O)[C@H]2C)[C@@H](OC)C[C@H]3C)C[C@H]1OC [Example 92] | –
25 | 0.3 | CC[C@@H]1/C=C(\C)C[C@H](C)C[C@H](OC)[C@H]2O[C@@](O)(C(=O)C(=O)N3CCCC[C@H]3C(=O)O[C@H](/C(C)=C/[C@@H]3CC[C@H](SC(=O)NC(C)C)[C@H](OC)C3)[C@H](C)[C@@H](O)CC1=O)[C@H](C)C[C@@H]2OC [Example 93] | –
26 | 1.9 | CC[C@@H]1/C=C(\C)C[C@H](C)C[C@H](OC)[C@H]2O[C@@](O)(C(=O)C(=O)N3CCCC[C@H]3C(=O)O[C@H](/C(C)=C/[C@@H]3CC[C@H](SC(=O)Nc4ccccc4)[C@H](OC)C3)[C@H](C)[C@@H](O)CC1=O)[C@H](C)C[C@@H]2OC [Example 94] | –
27 | 0.1 | CC[C@@H]1/C=C(\C)C[C@H](C)C[C@H](OC)[C@H]2O[C@@](O)(C(=O)C(=O)N3CCCC[C@H]3C(=O)O[C@H](/C(C)=C/[C@@H]3CC[C@H](SC(=O)N(C)C)[C@H](OC)C3)[C@H](C)[C@@H](O)CC1=O)[C@H](C)C[C@@H]2OC [Example 96] | –
28 | 0.5 | CC[C@@H]1/C=C(\C)C[C@H](C)C[C@H](OC)[C@H]2O[C@@](O)(C(=O)C(=O)N3CCCC[C@H]3C(=O)O[C@H](/C(C)=C/[C@@H]3CC[C@H](SC(=O)N(CC)CC)[C@H](OC)C3)[C@H](C)[C@@H](O)CC1=O)[C@H](C)C[C@@H]2OC [Example 97] | –
29 | 0.2 | CC[C@@H]1/C=C(\C)C[C@H](C)C[C@H](OC)[C@H]2O[C@@](O)(C(=O)C(=O)N3CCCC[C@H]3C(=O)O[C@H](/C(C)=C/[C@@H]3CC[C@H](SC(=O)N4CCOCC4)[C@H](OC)C3)[C@H](C)[C@@H](O)CC1=O)[C@H](C)C[C@@H]2OC [Example 98] | –
30 | 1.1 | CC[C@@H]1/C=C(\C)C[C@H](C)C[C@H](OC)[C@H]2O[C@@](O)(C(=O)C(=O)N3CCCC[C@H]3C(=O)O[C@H](/C(C)=C/[C@@H]3CC[C@H](SC(=O)NCC(=O)N4CCOCC4)[C@H](OC)C3)[C@H](C)[C@@H](O)CC1=O)[C@H](C)C[C@@H]2OC [Example 101] | –
31 | 2 | CC[C@@H]1/C=C(\C)C[C@H](C)C[C@H](OC)[C@H]2O[C@@](O)(C(=O)C(=O)N3CCCC[C@H]3C(=O)O[C@H](/C(C)=C/[C@@H]3CC[C@H](SC(=O)NCC(=O)N4CCCCC4)[C@H](OC)C3)[C@H](C)[C@@H](O)CC1=O)[C@H](C)C[C@@H]2OC [Example 102] | –

From US5604234A, “Substituted thiol macrolactam immunomodulators” (Abbott Laboratories, priority 1995, dated 1997)
